Series [1] in a line: DNDI: Cytotoxicity against human MRC-5 lung fibroblast cells. Particulars: IC50.
Series [2] relates to Trypanosoma brucei brucei. Put plainly: microbe, parasite or virus in culture. The format is functional, organism-based, STIB 795.
Description: DNDI: Inhibition of Human African Trypanosomiasis (HAT), STIB 795, in vitro

Bounds are passed on as bounds.

By IC50 is commonly meant the concentration that inhibits the measured activity by half. Read a high IC50 as weaker potency in that assay. `CCOC(=O)c1ccc(Nc2nnc(C(C)(C)C)c(O)n2)cc1`: the IC50 in series [1] was over 41.7 µM; in series [2] (Trypanosoma brucei, STIB 795) it was 10.2 µM.

For `Cc1cc(NCCN2CCOCC2)c2ccc3ccccc3c2n1`, the IC50 was over 20.8 µM in series [1] and 4.87 µM in series [2] (Trypanosoma brucei, STIB 795).

As to `CC(C)(C)c1ccc(OCCCCCCN2CCNCC2)cc1`, the IC50 is over 20.8 µM in series [1] and 0.734 µM in series [2] (Trypanosoma brucei, STIB 795).

For `CCN(CC)CCn1nc2c3c(cccc3c1=O)-c1ccccc1-2`, the IC50 in series [1] came out at 1.46 µM; in series [2] (Trypanosoma brucei, STIB 795) it was 1.58 µM.

Regarding `CCCC(=O)Nc1ccc(Cl)c(-c2nc3ncccc3o2)c1`, the IC50 in series [1] was over 41.7 µM; in series [2] (Trypanosoma brucei, STIB 795), 0.851 µM.

As to `NCC12CC3CC(C1)CC(c1ccc(Br)cc1)(C3)C2`, the IC50 is 6.72 µM in series [1] and 0.687 µM in series [2] (Trypanosoma brucei, STIB 795).

With `Cc1ccccc1C(O)(Cc1ccccc1)C1CN2CCC1CC2` (centres undefined), the IC50 in series [1] was over 4.17 µM; in series [2] (Trypanosoma brucei, STIB 795), 4.69 µM.

For the compound `CC[n+]1c(/C=C/c2c[nH]c3ccccc23)ccc2cc(C)ccc21`, the IC50 is 3.71 µM in series [1] and 0.294 µM in series [2] (Trypanosoma brucei, STIB 795).

Regarding `NCCc1c(-c2ccccc2)n(-c2ccccc2)c2ccccc12`, the IC50 was over 20.8 µM in series [1] and 1.49 µM in series [2] (Trypanosoma brucei, STIB 795).

For the compound `COc1ccc(C(=O)O/N=C(\N)Cc2cccs2)cc1OC`, the IC50 in series [1] is over 20.8 µM; in series [2] (Trypanosoma brucei, STIB 795), 1.61 µM.

For the compound `CCN(CC)c1ccc(/C=N/NC(=O)c2cccs2)c(O)c1`, the IC50 in series [1] was over 41.7 µM; in series [2] (Trypanosoma brucei, STIB 795), 12.6 µM.

Take `Fc1ccc(C(=CCCn2ccnc2)c2ccc(F)cc2)cc1`: the 50% inhibitory concentration (IC50) in series [1] stood at 7.02 µM; in series [2] (Trypanosoma brucei, STIB 795), 0.327 µM.

With `C/C(=N\NC(=O)CCCNc1cccc(C)c1)c1ccccn1`, the IC50 is over 10.4 µM in series [1] and 3.96 µM in series [2] (Trypanosoma brucei, STIB 795).

`CCc1cc(OCCCCCN2CCNCC2)ccc1Cl`: the IC50 in series [1] was over 20.8 µM; in series [2] (Trypanosoma brucei, STIB 795) it was 0.807 µM.

For `N#CC1=C(N)Oc2[nH]nc(C(F)(F)F)c2C1c1cccs1` (centres undefined), the IC50 is over 41.7 µM in series [1]; 5.41 µM in series [2]; 5.51 µM in series [2] (Trypanosoma brucei, STIB 795).

Consider `O=C1/C(=C\c2ccccc2F)COC/C1=C\c1ccccc1F`, for which the IC50 is over 41.7 µM in series [1] and 1.6 µM in series [2] (Trypanosoma brucei, STIB 795).

Take `CCc1ccccc1Nc1nc(-c2ccc(O)cc2O)cs1`: the half-inhibitory concentration (IC50) is over 41.7 µM in series [1] and 3.63 µM in series [2] (Trypanosoma brucei, STIB 795).

As to `COc1nccnc1N/N=C/c1cc(Cl)cc(Cl)c1O`, the IC50 is over 20.8 µM in series [1] and 5.19 µM in series [2] (Trypanosoma brucei, STIB 795).

Consider `N=C(N)N/N=C(\c1ccc(Cl)cc1)c1ccc(Cl)s1`, for which the IC50 was over 4.17 µM in series [1] and at most 2.46 µM in series [2] (Trypanosoma brucei, STIB 795).

With `N/C(Cc1cccc2ccccc12)=N\OC(=O)N1CCOCC1`, the IC50 is over 20.8 µM in series [1] and 0.604 µM in series [2] (Trypanosoma brucei, STIB 795).

Take `Cc1ccc(NCC(=O)N/N=C/c2c(C)cc(O)cc2O)cc1`: the concentration for half-maximal inhibition (IC50) in series [1] was over 20.8 µM; in series [2] (Trypanosoma brucei, STIB 795), 5.37 µM.

Take `CCn1c(=N)n(CCCOc2ccc(F)cc2)c2ccccc21`: the IC50 in series [1] was over 20.8 µM; in series [2] (Trypanosoma brucei, STIB 795), 5.46 µM.

On to `Cc1ccc(-n2nnnc2CNC(=O)c2cccs2)cc1C`, for which the IC50 was over 41.7 µM in series [1] and 5.85 µM in series [2] (Trypanosoma brucei, STIB 795).

With `C[n+]1ccc(/C=C/c2c[nH]c3ccc(Br)cc23)cc1`, the IC50 in series [1] was over 4.17 µM; in series [2] (Trypanosoma brucei, STIB 795) it was 5.26 µM.

In the case of `Cc1ccccc1/N=N/C(=N\Nc1ccccc1)c1ccccc1`, the IC50 in series [1] was over 41.7 µM; in series [2] (Trypanosoma brucei, STIB 795), 1.64 µM.

Take `O=C(NCCCN1CCCC1)c1ccc(-c2ccccc2)s1`: the IC50 was over 20.8 µM in series [1] and 5.51 µM in series [2] (Trypanosoma brucei, STIB 795).

With `Cc1cc(C)c2nc(C)cc(Nc3ccc(O)cc3)c2c1`, the IC50 in series [1] is over 20.8 µM; in series [2] (Trypanosoma brucei, STIB 795), 2.95 µM.

Take `Cc1cc(C)c2nc(C)cc(Nc3cccc(O)c3)c2c1`: the IC50 in series [1] is over 20.8 µM; in series [2] (Trypanosoma brucei, STIB 795), 4.93 µM.

Consider `CCCCC1=NN(C(=O)c2ccccn2)C(O)(C(F)(F)F)C1` (centres undefined), for which the IC50 was over 20.8 µM in series [1] and 5.4 µM in series [2] (Trypanosoma brucei, STIB 795).

As for `Oc1c(/N=N/c2ccc3cccc(O)c3n2)ccc2ccccc12`, the IC50 is over 20.8 µM in series [1] and 3.87 µM in series [2] (Trypanosoma brucei, STIB 795).

In the case of `CC(C)NCC(O)COc1cc2ccsc2c2ccccc12` (centres undefined), the IC50 amounted to 7.53 µM in series [1] and 1.54 µM in series [2] (Trypanosoma brucei, STIB 795).

In the case of `O=C(Nc1c2ccccc2nc2ccccc12)c1ccccc1F`, the IC50 in series [1] is over 4.17 µM; in series [2] (Trypanosoma brucei, STIB 795) it was 5.31 µM.

Regarding `CC(C)OCc1cc(CN2CCOCC2)c(O)c2ncccc12`, the IC50 in series [1] is 0.91 µM; in series [2] (Trypanosoma brucei, STIB 795), 0.498 µM.

As to `Clc1ccc(OCCCCCN2CCNCC2)c(Cl)c1`, the IC50 in series [1] was over 41.7 µM; in series [2] (Trypanosoma brucei, STIB 795), 3.57 µM.

On to `Cn1c(-c2cccnc2)nn(C2CC(=O)C3OCC2O3)c1=S` (centres undefined), for which the concentration for half-maximal inhibition (IC50) in series [1] was over 20.8 µM; in series [2] (Trypanosoma brucei, STIB 795), 2.32 µM.

As for `N/C(Cc1cccs1)=N\OC(=O)C12CC3CC(CC(C3)C1)C2`, the half-inhibitory concentration (IC50) in series [1] was over 20.8 µM; in series [2] (Trypanosoma brucei, STIB 795), 0.125 µM.

As for `CC[n+]1c(/C=C/c2ccc(N(C)C)cc2)ccn1-c1ccccc1`, the IC50 in series [1] was over 20.8 µM; in series [2] (Trypanosoma brucei, STIB 795), 0.536 µM.

With `C=CCc1ccc(OCCCCCN2CCNCC2)c(OC)c1`, the IC50 is over 41.7 µM in series [1] and 3.19 µM in series [2] (Trypanosoma brucei, STIB 795).

For `C=CCNCCCCOc1ccc(Br)cc1Cl`, the IC50 in series [1] is over 41.7 µM; in series [2] (Trypanosoma brucei, STIB 795), 4.95 µM.

`Cn1ccnc1Sc1cnn(-c2ccccc2)c(=O)c1Cl`: the IC50 in series [1] is over 20.8 µM; in series [2] (Trypanosoma brucei, STIB 795), 5.27 µM.

For `N/C(=N\OC(=O)c1ccccc1Br)c1ccccc1`, the IC50 was over 20.8 µM in series [1] and 2.66 µM in series [2] (Trypanosoma brucei, STIB 795).

`Clc1ccc(CCNCc2c[nH]c3ccccc23)c(Cl)c1`: the IC50 in series [1] is over 20.8 µM; in series [2] (Trypanosoma brucei, STIB 795), 5.33 µM.

Turning to `Cc1nn2c(=O)cc(-c3ccc(F)cc3)[nH]c2c1-c1ccccc1`, the IC50 in series [1] was 2.42 µM; in series [2] (Trypanosoma brucei, STIB 795) it was 0.913 µM.

For the compound `CC(C)N1C/C(=C/c2ccccn2)C(=O)/C(=C/c2ccccn2)C1`, the IC50 in series [1] is 5.78 µM; in series [2] (Trypanosoma brucei, STIB 795), 0.236 µM.

In the case of `CC(C)(C)c1ccc(CN2CCCn3c2nc2ccccc23)cc1`, the IC50 was over 20.8 µM in series [1] and 5.62 µM in series [2] (Trypanosoma brucei, STIB 795).

In the case of `Cc1cccc(CN2CCN(Cc3c[nH]c4ccccc34)CC2)c1`, the IC50 in series [1] is over 20.8 µM; in series [2] (Trypanosoma brucei, STIB 795), 5.24 µM.

As to `CCOc1cc(CNCCc2cccc(Cl)c2)ccc1OC`, the IC50 is over 20.8 µM in series [1] and 4.84 µM in series [2] (Trypanosoma brucei, STIB 795).

Consider `O=C(NNC(=O)c1ccccn1)c1cccc(Br)c1`, for which the 50% inhibitory concentration (IC50) is over 4.17 µM in series [1] and 1.74 µM in series [2] (Trypanosoma brucei, STIB 795).

On to `COc1ccc(C/C(N)=N/OC(=O)c2cccs2)cc1OC`, for which the IC50 in series [1] is over 41.7 µM; in series [2] (Trypanosoma brucei, STIB 795), 4.78 µM.

Consider `Cc1cc(C)c2nc(C)cc(Nc3ccc4c(c3)OCCO4)c2c1`, for which the concentration for half-maximal inhibition (IC50) is over 41.7 µM in series [1] and 3.91 µM in series [2] (Trypanosoma brucei, STIB 795).

Take `Cc1c(-c2cccc3c2OC(C)(C)C3)ccc2nc(N)nc(N)c12`: the IC50 is over 4.17 µM in series [1] and at most 1.95 µM in series [2] (Trypanosoma brucei, STIB 795).

Take `CC(C)(C)OC(=O)N/N=C\c1ccc(-c2cccc(Cl)c2)o1`: the IC50 in series [1] is over 41.7 µM; in series [2] (Trypanosoma brucei, STIB 795), 7.35 µM.

As for `Nc1nc(NN2CCCCC2)nc(-c2cc(Cl)ccc2O)n1`, the half-inhibitory concentration (IC50) was over 20.8 µM in series [1] and 4.15 µM in series [2] (Trypanosoma brucei, STIB 795).

With `CCc1cc(C2CCCN2C(=O)c2c(F)cccc2Cl)on1` (centres undefined), the IC50 was over 41.7 µM in series [1] and 5.12 µM in series [2] (Trypanosoma brucei, STIB 795).

With `CCN(CC)c1ccc(/C=N/NC(=O)c2ccncc2)c(O)c1`, the IC50 in series [1] is over 4.17 µM; in series [2] it was 7.34 µM; in series [2] (Trypanosoma brucei, STIB 795) it was 3.82 µM.

Consider `Cc1cc(NCCN2CCCCC2)c2ccc3ccccc3c2n1`, for which the IC50 in series [1] was over 20.8 µM; in series [2] (Trypanosoma brucei, STIB 795), 2.43 µM.

The values above are taken from ChEMBL document CHEMBL2094269, “WEHI/Eskitis Trypanosoma b. brucei screening data”.
